From patent US20250195521A1 (Revolution Medicines, Inc., priority 2020, published 2025)

Legend:
[1] = tested on: K-Ras G12C (NCI-H358 cells); assay: Potency assay: pERK in NCI-H358 cells; type: cell-based, human; conditions: Homo sapiens; NCI-H358 cells, 4 hours; read-out: pERK EC50 (H358 KRAS G12C)
Procedure, shortened: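 Cells plated the day before were exposed for 4 h at 37° C, 5% CO2 to a 10-point, 3-fold DMSO dilution series (10 mM top stock), in duplicate. Phospho-ERK was read by AlphaLISA SureFire Ultra or by In-Cell Western with DRAQ5 DNA stain, and IC50 came from a 4-parameter sigmoidal fit.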

NCI-H358 (K-Ras G12C) = assay: CellTiter-Glo cell viability assay, NCI-H358; type: cell-based, human; conditions: Homo sapiens, NCI-H358, 120 h, 5-day treatment; read-out: H358 Cell Viability assay data (K-Ras G12C, IC50)
Procedure, shortened: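 Viability read-out was luminescent (CellTiter-Glo) on day 5 of compound exposure in K-Ras G12C NCI-H358 cells. Values were expressed as percent of mean DMSO signal and fitted with a four-parameter logistic curve.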

[2] = biological target: K-Ras G12C(GMP-PNP) binding to BRAF RBD (Homo sapiens (Human), UniProt P01116+P62937, G12C); assay: Disruption of BRAF RBD interaction with K-Ras (FRET / MOA assay), K-Ras G12C; type: biochemical; conditions: read-out: KRAS G12C FRET IC50
Procedure, shortened: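 First, test compounds in a 10-point 3-fold series (30 μM final top) were incubated for 3 hours at 25° C with nucleotide-loaded Ras, cyclophilin A and a BRAF RBD construct. Next, Eu anti-His and allophycocyanin anti-GST detection reagents were added for 1.5 hours. Finally, IC50s were derived from loss of TR-FRET signal against DMSO.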

[3] = biological target: KRAS G13D binding to BRAF RBD (Homo sapiens (Human), UniProt P01116+P62937, G13D); assay: Ras-Raf disruption/FRET/MOA assay, KRAS G13D; type: biochemical
Description: (§1) Note—The following protocol describes a procedure for monitoring disruption of K-Ras G12C(GMP-PNP) binding to BRAF^RBD by a compound of the invention. This protocol may also be executed substituting other Ras proteins or nucleotides.
(§2) The purpose of this biochemical assay was to measure the ability of test compounds to facilitate ternary complex formation between a nucleotide-loaded K-Ras isoform and Cyclophilin A; the resulting ternary complex disrupts binding to a BRAF^RBD construct, inhibiting K-Ras signaling through a RAF effector. Data is reported as IC50 values.
(§3) Compound was present in plate wells as a 10-point 3-fold dilution series starting at a final concentration of 30 μM. After incubation at 25° C. for 3 hours, a mixture of Anti-His Eu—W1024 and anti-GST allophycocyanin was then added to assay sample wells at final concentrations of 10 nM and 50 nM, respectively, and the reaction incubated for an additional 1.5 hours. […] Compounds that facilitate disruption of a K-Ras: RAF complex were identified as those eliciting a decrease in the TR-FRET ratio relative to DMSO control wells.

[4] = biological target: KRAS Q61H binding to BRAF RBD (Homo sapiens (Human), UniProt P01116+P62937, Q61H); assay: Ras-Raf disruption/FRET/MOA assay, KRAS Q61H; type: biochemical
Description: (§4) Disruption of B-Raf Ras-binding Domain (BRAF^RBD) Interaction with K-Ras by Compounds of the Invention (also called a FRET assay or an MOA assay)
as §1, §2
as §3, with “In assay buffer containing 25 mM HEPES pH 7.3, 0.002% Tween20, 0.1% BSA, 100 mM NaCl and 5 mM MgCl2, tagless Cyclophilin A, His6-K-Ras-GMPPNP, and GST-BRAF^RBD were combined in a 384-well assay plate at final concentrations of 25 μM, 12.5 nM and 50 nM, respectively. Compound was” for “Compound was”

[5] = biological target: NRAS G12C binding to BRAF RBD (Homo sapiens (Human), UniProt P01111+P62937, G12C); assay: Ras-Raf disruption/FRET/MOA assay, NRAS G12C; type: biochemical
Description: as §1, §2, §3

[6] = biological target: NRAS Q61R binding to BRAF RBD (Homo sapiens (Human), UniProt P01111+P62937, Q61R); assay: Ras-Raf disruption/FRET/MOA assay, NRAS Q61R; type: biochemical
Description: as §4, §1, §2
as §3, with “In assay buffer containing 25 mM HEPES pH 7.3, 0.002% Tween20, 0.1% BSA, 100 mM NaCl and 5 mM MgCl2, tagless Cyclophilin A, His6-K-Ras-GMPPNP, and GST-BRAF^RBD were combined in a 384-well assay plate at final concentrations of 25 μM, 12.5 nM and 50 nM, respectively. Compound was” for “Compound was”

[7] = biological target: NRAS Q61K binding to BRAF RBD (Homo sapiens (Human), UniProt P01111+P62937, Q61K); assay: Ras-Raf disruption/FRET/MOA assay, NRAS Q61K; type: biochemical
Description: as §4, §1, §2
as §3, with “In assay buffer containing 25 mM HEPES pH 7.3, 0.002% Tween20, 0.1% BSA, 100 mM NaCl and 5 mM MgCl2, tagless Cyclophilin A, His6-K-Ras-GMPPNP, and GST-BRAF^RBD were combined in a 384-well assay plate at final concentrations of 25 μM, 12.5 nM and 50 nM, respectively. Compound was” for “Compound was”

[8] = biological target: NRAS WT binding to BRAF RBD (Homo sapiens (Human), UniProt P01111+P62937); assay: Ras-Raf disruption/FRET/MOA assay, NRAS WT; type: biochemical
Description: as §4, §1, §2
as §3, with “In assay buffer containing 25 mM HEPES pH 7.3, 0.002% Tween20, 0.1% BSA, 100 mM NaCl and 5 mM MgCl2, tagless Cyclophilin A, His6-K-Ras-GMPPNP, and GST-BRAF^RBD were combined in a 384-well assay plate at final concentrations of 25 μM, 12.5 nM and 50 nM, respectively. Compound was” for “Compound was”

Sequence of KRAS G13D binding to BRAF RBD (P01116 other isoform, or with tags, fused parts or gaps G13D): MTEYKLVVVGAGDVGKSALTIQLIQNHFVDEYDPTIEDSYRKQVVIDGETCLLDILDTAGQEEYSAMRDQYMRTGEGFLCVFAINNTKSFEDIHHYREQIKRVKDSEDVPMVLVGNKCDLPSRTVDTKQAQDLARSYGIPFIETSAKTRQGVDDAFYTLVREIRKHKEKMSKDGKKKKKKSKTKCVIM
Sequence of KRAS G13D binding to BRAF RBD (P62937 whole entry): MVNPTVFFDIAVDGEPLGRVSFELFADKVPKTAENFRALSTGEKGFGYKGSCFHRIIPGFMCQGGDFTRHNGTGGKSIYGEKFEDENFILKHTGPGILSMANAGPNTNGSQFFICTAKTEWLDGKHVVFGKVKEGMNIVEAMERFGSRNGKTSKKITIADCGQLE
Sequence of KRAS Q61H binding to BRAF RBD (P01116 other isoform, or with tags, fused parts or gaps Q61H): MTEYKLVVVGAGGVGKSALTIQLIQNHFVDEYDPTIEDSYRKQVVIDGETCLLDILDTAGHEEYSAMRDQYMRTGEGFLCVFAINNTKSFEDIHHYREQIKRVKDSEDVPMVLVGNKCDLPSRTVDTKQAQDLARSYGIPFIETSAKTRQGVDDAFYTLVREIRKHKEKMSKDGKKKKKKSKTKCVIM
Sequence of KRAS Q61H binding to BRAF RBD (P62937 whole entry, the tested form may be a part): as the sequence (P62937 whole entry) above
Sequence of NRAS WT binding to BRAF RBD (P01111 whole entry): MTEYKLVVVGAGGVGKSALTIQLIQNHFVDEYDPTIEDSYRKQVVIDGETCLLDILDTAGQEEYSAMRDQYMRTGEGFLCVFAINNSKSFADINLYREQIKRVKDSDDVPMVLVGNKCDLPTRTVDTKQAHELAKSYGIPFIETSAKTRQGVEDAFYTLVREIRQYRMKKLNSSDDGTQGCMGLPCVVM
Sequence of NRAS WT binding to BRAF RBD (P62937 whole entry): as the sequence (P62937 whole entry) above
Sequence of K-Ras G12C(GMP-PNP) binding to BRAF RBD (P01116 other isoform, or with tags, fused parts or gaps G12C): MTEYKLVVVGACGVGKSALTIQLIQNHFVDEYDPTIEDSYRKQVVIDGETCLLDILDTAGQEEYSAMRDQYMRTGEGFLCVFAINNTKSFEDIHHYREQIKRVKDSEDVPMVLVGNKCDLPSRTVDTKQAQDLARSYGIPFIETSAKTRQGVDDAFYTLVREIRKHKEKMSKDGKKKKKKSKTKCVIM
Sequence of K-Ras G12C(GMP-PNP) binding to BRAF RBD (P62937 whole entry): as the sequence (P62937 whole entry) above
Sequence of NRAS G12C binding to BRAF RBD (P01111 whole entry G12C): as the sequence (P01111 whole entry) above, with G12C counted along it
Sequence of NRAS G12C binding to BRAF RBD (P62937 whole entry): as the sequence (P62937 whole entry) above
Sequence of NRAS Q61R binding to BRAF RBD (P01111 whole entry Q61R): as the sequence (P01111 whole entry) above, with Q61R counted along it
Sequence of NRAS Q61R binding to BRAF RBD (P62937 whole entry): as the sequence (P62937 whole entry) above
Sequence of NRAS Q61K binding to BRAF RBD (P01111 whole entry Q61K): as the sequence (P01111 whole entry) above, with Q61K counted along it
Sequence of NRAS Q61K binding to BRAF RBD (P62937 whole entry): as the sequence (P62937 whole entry) above

Row | SMILES | EC50 [1] [nM] | IC50 (NCI-H358 (K-Ras G12C)) [nM] | IC50 [2] [nM] | IC50 [3] [nM] | IC50 [4] [nM] | IC50 [5] [nM] | IC50 [6] [nM] | IC50 [7] [nM] | IC50 [8] [nM]
1 | C=CC(=O)N1CC[C@H](C(=O)N(C)[C@H](C(=O)N[C@H]2Cc3cccc(c3)-c3ccc4c(c3)c(c(-c3cccnc3[C@H](C)OC)n4CC)CC(C)(C)COC(=O)[C@@H]3CCCN(N3)C2=O)[C@H](C)C(F)(F)F)C1 (atropisomer, axis not shown) [Compound A641] | < 5000 | 10 to 100 | 100 to 1000 | 1000 to 10000 | 1000 to 10000 | 100 to 1000 | 1000 to 10000 | 1000 to 10000 | 1000 to 10000
2 | CCn1c(-c2cccnc2[C@H](C)OC)c2c3cc(ccc31)-c1cnc(o1)C[C@H](NC(=O)[C@@H](COC1CN(C(=O)C#CC(C)(C)N(C)C)C1)C(C)C)C(=O)N1CCC[C@H](N1)C(=O)OCCC2 (atropisomer, axis not shown) [Compound A649] | < 5000 | 10 to 100 | 10 to 100 | > 10000 | > 10000 | 10 to 100 | > 10000 | > 10000 | > 10000
3 | CC[C@H](COC1CN(C(=O)C#CC(C)(C)N(C)C)C1)C(=O)N[C@H]1Cc2nc(cs2)-c2ccc3c(c2)c(c(-c2cccnc2[C@H](C)OC)n3CC)CC(C)(C)COC(=O)[C@@H]2CCCN(N2)C1=O (atropisomer, axis not shown) [Compound A660] | < 5000 | < 10 | < 10 | 1000 to 10000 | 100 to 1000 | < 10 | 1000 to 10000 | 100 to 1000 | 100 to 1000
4 | CC[C@@H](COC1CN(C(=O)C#CC(C)(C)N(C)C)C1)C(=O)N[C@H]1Cc2nc(cs2)-c2ccc3c(c2)c(c(-c2cccnc2[C@H](C)OC)n3CC)CC(C)(C)COC(=O)[C@@H]2CCCN(N2)C1=O (atropisomer, axis not shown) [Compound A705] | < 5000 | < 10 | < 10 | > 10000 | 1000 to 10000 | < 10 | > 10000 | 1000 to 10000 | 1000 to 10000
5 | CCn1c(-c2cccnc2[C@H](C)OC)c2c3cc(ccc31)-c1cccc(c1)C[C@H](NC(=O)[C@H](C(C)C)N1CC[C@@]3(CCN(C(=O)C#CC(C)(C)N4CCC4)C3)C1=O)C(=O)N1CCC[C@H](N1)C(=O)OCC(C)(C)C2 (atropisomer, axis not shown) [Compound A733] | < 5000 | < 10 | 10 to 100 | > 10000 | 1000 to 10000 | 10 to 100 | > 10000 | > 10000 | > 10000
6 | CCn1c(-c2cncnc2)c2c3cc(ccc31)-c1csc(n1)C[C@H](NC(=O)[C@H](C(C)C)N(C)C(=O)[C@H]1CCN(S(=O)(=O)CC)C1)C(=O)N1CCC[C@H](N1)C(=O)OCC(C)(C)C2 [Compound A170] |  | 100 to 1000 | 1000 to 10000 | > 10000 | > 10000 | 1000 to 10000 | > 10000 | > 10000 | > 10000
7 | C=C(C)C(=O)N1CC(N(C)C(=O)N(C)[C@H](C(=O)N[C@H]2Cc3nc(cs3)-c3ccc4c(c3)c(c(-c3cccnc3[C@H](C)OC)n4CC)CC(C)(C)COC(=O)[C@@H]3CCCN(N3)C2=O)C(C)C)C1 [Compound A359] |  |  |  |  | 1000 to 10000 |  | 1000 to 10000 | 1000 to 10000 | 1000 to 10000
8 | CCn1c(-c2cccnc2[C@H](C)OC)c2c3cc(ccc31)-c1csc(n1)C[C@H](NC(=O)C1(COC3CN(C(=O)C#CC(C)(C)N4CCC4)C3)CC1)C(=O)N1CCC[C@H](N1)C(=O)OCC(C)(C)C2 [Compound A362] |  | 10 to 100 | 10 to 100 | > 10000 | 1000 to 10000 | 10 to 100 | > 10000 | > 10000 | 1000 to 10000
9 | CCn1c(-c2cccnc2[C@H](C)OC)c2c3cc(ccc31)-c1cccc(c1)C[C@H](NC(=O)[C@H](C(C)C)N1CC[C@]3(CCN(C(=O)C#CC(C)(C)N4CCC4)C3)C1=O)C(=O)N1CCC[C@H](N1)C(=O)OCC(C)(C)C2 [Compound A365] |  | < 10 | < 10 | 1000 to 10000 | 100 to 1000 | < 10 | 1000 to 10000 | 1000 to 10000 | 1000 to 10000
10 | C=CC(=O)N1CC[C@H](C(=O)N(C)[C@H](C(=O)N[C@H]2CC3CN(CCO3)c3ccc4c(c3)c(c(-c3cccnc3[C@H](C)OC)n4CC)CC(C)(C)COC(=O)[C@@H]3CCCN(N3)C2=O)C(C)C)C1 [Compound A378] | < 5000 | 100 to 1000 |  | > 10000 | > 10000 | 100 to 1000 | > 10000 | > 10000 | 1000 to 10000
11 | C=CC(=O)N1CC[C@H](C(=O)C2CC[C@H](C)[C@H]2C(=O)N[C@H]2Cc3cccc(c3)-c3ccc4c(c3)c(c(-c3cccnc3[C@H](C)OC)n4CC)CC(C)(C)COC(=O)[C@@H]3CCCN(N3)C2=O)C1 (stereo partly drawn) [Compound A494] | < 5000 |  |  | > 10000 | 100 to 1000 | 100 to 1000 | 1000 to 10000 | 1000 to 10000 | 1000 to 10000
12 | C=CC(=O)N(C)CCN1CCN(C(=O)N(C)[C@H](C(=O)N[C@H]2C[n+]3cccc(c3)-c3ccc4c(c3)c(c(-c3cccnc3[C@H](C)OC)n4CC)CC(C)(C)COC(=O)[C@@H]3CCCN(N3)C2=O)C(C)C)CC1 [Compound A539] |  | 100 to 1000 | 100 to 1000 | 1000 to 10000 | 100 to 1000 | 100 to 1000 | 100 to 1000 | 100 to 1000 | 100 to 1000
